Series [1] can be described thus: Simulated Intestinal Fluid (SIF) Stability Assay. The format is in vitro ADME, porcine. Particulars: pig, pH 6.5, Table 3-B, > means experiment was stopped at that time and half life was not reached, read-out: Stabilty SIF t1/2. An outline of the steps: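 Peptides (22 μM final) incubated at 37 °C in FASSIF (pH 6.5) with 1% porcine pancreatin; aliquots quenched at various times and analyzed by LC-MS/MS against internal standard. Half-life from first-order exponential decay fit of percent remaining.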

Another series concerns the target T1, rh integrin α4β7 (Homo sapiens, UniProt P13612+P26010).
T1 construct: purchased R&D Systems 5397-A30
Briefly: α4β7-MAdCAM Competition ELISA. The format is binding. Particulars: Table 3-B, Potency (α4β7); range classes; read-out: α4β7 ELISA IC50. As for the experimental part: A nickel coated plate (Pierce #15442) was coated with rh integrin α4β7 (R&D Systems #5397-A30) at 800 ng/well and incubated at room temperature with shaking for 1 hr. The solution was then removed by shaking and blocked with assay buffer (50 mM Tris-HCl pH7.6, 150 mM NaCl, 1 mM MnCl2 or MgCl2, 0.05% Tween-20 and 0.5% BSA) at 250 ul/well. The plate was then incubated at room temperature for 1 hr. Each well was washed 3 times with wash buffer (50 mM Tris-HCl pH7.6, 100 mM NaCl, 1 mM MnCl2 or MgCl2, 0.05% Tween-20). To each well was added 25 ul of a serial dilution (3-fold dilutions in assay buffer) of peptide starting at 20 μM. 25 ul of recombinant human MAdCAM-1 (R&D Systems #6056-MC) was then added to each well at a fixed concentration 20 nM. The final starting peptide concentration was 10 μM, and the final MAdCAM-1 concentration was 10 nM. The plates were then incubated at room temperature for 1 hr to reach binding equilibrium. The wells were then washed three times with wash buffer. 50 ul of mouse anti-human IgG1-HRP (Invitrogen # A10648) diluted in 1:2000 in assay buffer was then added to each well. The wells were incubated at room temperature for 45 min with shaking. The wells were then washed 3 times with wash buffer. 100 ul of 3,3′,5,5′-Tetramethylbenzidine (TMB) were then added to each well and closely observe during development time. The reaction was stopped with 2N H2SO4 and absorbance was read at 450 nm.
TMB is a chromogenic substrate suitable for use in ELISA procedures, which utilize horseradish peroxidase conjugates. This substrate produces a soluble end product that is blue in color and can be read spectrophotometrically at 370 or 655 nm. The reaction maybe stopped with 2 M H2S04, resulting in a yellow solution that is read at 450 nm. Each tablet contains 1 mg of TMB substrate. To prepare TMB Substrate Solution, dissolve one 3,3′,5,5′-tetramethylbenzidine tablet in 1 ml of DMSO and add to 9 ml of 0.05 M Phosphate-Citrate Buffer, pH 5.0. Add 2 μl of fresh 30% hydrogen peroxide (Product No. H 1009) per 10 ml of substrate buffer solution, immediately prior to use.
In general terms: ELISA stands for enzyme-linked immunosorbent assay.

The target of a further series is α4β7 (Homo sapiens, UniProt P13612+P26010). Description: α4β7-MAdCAM Cell Adhesion Assay (RPMI 8866 human cells). The format is cell-based. On the set-up: host or cells: RPMI 8866 human B lymphoblastoid cells. The settings on record: Table 3-B, Potency (α4β7); range classes; read-out: α4β7 cell (Hu) IC50. An outline of the steps: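 Washed RPMI 8866 cells (200,000/well) in DMEM with 0.1% BSA, 10 mM HEPES pH 7, 1 mM MnCl2 adhered to rh MAdCAM-1/Fc-coated wells with serially diluted peptides, 30-45 min at 37 °C. After three washes, bound cells quantified by MTT, A570, cell-free background subtracted for dose response.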

The mark [2] stands for this setting: simulated intestinal fluid (SIF) with 1% porcine pancreatin.
Where [3] appears, read: simulated intestinal fluid (SIF) with porcine pancreatin.

Where two headings read alike, the source gives them in different places. Numbered stars: 1 amine (or outer) side, 2 acyl side, 3 side chain; on linkers, the order of the positions; unused ones are H or OH. Bridge positions count the residues as written; N and C are the ends. Square brackets hold non-standard residues; d marks the D form. Peptide text beside a SMILES is read from it. I, II: the chains in the order shown. Phe(4-tBu) = CC(C)(C)c1ccc(C[C@H](N)C(=O)O)cc1; 2Nal = N[C@@H](Cc1ccc2ccccc2c1)C(=O)O; Diglycolyl = O=C(COCC(=O)[*:2])[*:1]; NMeR = CN[C@@H](CCCNC(=N)N)C(=O)O; hPhe = N[C@@H](CCc1ccccc1)C(=O)O; Aic = NC1(C(=O)O)Cc2ccccc2C1; Pen = CC(C)(S)[C@H](N)C(=O)O; βAla = NCCC(=O)O A value given as a limit tells only on which side of the number the result lay.

T1 sequence (P13612 34-977 limits assumed): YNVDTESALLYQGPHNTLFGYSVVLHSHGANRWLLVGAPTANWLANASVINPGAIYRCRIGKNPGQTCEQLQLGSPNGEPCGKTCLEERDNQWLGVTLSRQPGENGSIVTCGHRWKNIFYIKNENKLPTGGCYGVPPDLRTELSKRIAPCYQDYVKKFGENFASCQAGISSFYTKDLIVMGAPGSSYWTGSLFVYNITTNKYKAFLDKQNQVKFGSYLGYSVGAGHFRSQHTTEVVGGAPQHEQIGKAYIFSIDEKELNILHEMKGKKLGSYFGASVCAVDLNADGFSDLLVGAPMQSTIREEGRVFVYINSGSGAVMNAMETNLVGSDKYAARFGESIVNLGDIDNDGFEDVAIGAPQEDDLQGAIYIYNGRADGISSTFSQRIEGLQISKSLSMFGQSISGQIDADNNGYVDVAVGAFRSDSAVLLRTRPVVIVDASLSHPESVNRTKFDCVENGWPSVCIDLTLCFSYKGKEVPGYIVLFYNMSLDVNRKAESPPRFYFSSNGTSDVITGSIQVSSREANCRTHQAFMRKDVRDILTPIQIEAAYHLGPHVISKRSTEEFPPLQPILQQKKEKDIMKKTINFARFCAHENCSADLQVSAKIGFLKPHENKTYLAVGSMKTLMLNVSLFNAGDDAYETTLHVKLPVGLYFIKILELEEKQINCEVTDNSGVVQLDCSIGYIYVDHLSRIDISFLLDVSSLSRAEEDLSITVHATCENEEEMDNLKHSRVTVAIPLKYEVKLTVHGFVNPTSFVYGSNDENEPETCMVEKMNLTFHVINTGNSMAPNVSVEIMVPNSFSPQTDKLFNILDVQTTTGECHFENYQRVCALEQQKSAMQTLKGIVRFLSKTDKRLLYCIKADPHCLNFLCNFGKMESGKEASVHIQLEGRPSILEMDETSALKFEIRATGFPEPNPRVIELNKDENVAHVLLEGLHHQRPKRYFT
T1 sequence (P26010 20-723 limits assumed): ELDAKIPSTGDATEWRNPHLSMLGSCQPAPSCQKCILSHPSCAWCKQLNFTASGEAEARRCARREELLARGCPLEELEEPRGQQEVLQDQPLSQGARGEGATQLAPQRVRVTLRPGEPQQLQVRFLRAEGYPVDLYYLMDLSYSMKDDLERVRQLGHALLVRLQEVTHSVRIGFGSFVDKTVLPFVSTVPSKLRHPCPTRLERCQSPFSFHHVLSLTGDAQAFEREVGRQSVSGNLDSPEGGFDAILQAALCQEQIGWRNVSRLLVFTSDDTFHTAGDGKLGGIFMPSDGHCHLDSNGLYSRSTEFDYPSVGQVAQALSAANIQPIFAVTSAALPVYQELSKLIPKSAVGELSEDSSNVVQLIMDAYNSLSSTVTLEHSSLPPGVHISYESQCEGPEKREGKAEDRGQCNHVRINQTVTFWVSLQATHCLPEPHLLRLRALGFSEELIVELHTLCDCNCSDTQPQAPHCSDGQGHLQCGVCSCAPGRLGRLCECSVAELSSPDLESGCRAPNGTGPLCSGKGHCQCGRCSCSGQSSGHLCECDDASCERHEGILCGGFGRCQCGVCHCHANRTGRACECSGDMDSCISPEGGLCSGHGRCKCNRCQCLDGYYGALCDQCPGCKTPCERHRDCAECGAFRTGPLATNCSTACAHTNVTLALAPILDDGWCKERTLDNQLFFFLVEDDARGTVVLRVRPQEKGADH
α4β7, sequence (P13612 34-1032): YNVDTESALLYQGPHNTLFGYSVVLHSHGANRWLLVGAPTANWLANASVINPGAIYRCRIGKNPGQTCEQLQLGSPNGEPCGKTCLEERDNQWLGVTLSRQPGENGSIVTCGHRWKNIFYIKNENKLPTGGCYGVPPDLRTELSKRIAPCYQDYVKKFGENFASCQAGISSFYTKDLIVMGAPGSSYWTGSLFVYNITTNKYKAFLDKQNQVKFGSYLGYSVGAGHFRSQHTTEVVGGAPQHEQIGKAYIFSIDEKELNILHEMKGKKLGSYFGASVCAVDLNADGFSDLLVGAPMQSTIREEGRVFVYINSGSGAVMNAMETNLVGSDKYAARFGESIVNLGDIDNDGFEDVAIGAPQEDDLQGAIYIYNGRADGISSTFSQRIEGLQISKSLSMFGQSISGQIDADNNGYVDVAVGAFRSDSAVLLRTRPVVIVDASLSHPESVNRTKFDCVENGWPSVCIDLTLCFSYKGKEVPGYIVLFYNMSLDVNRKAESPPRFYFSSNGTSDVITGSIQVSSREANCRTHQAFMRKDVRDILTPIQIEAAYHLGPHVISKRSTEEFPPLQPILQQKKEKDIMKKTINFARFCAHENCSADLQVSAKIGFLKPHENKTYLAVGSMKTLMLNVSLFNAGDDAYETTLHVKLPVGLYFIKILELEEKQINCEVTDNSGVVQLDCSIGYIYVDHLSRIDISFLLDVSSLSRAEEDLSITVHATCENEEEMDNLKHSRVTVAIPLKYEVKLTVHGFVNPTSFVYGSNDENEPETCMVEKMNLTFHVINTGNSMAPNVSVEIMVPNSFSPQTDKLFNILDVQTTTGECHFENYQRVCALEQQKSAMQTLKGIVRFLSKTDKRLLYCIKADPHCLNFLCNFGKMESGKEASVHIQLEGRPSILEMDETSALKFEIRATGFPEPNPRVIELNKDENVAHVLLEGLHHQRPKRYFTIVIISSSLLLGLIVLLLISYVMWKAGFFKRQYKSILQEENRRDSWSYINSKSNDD
α4β7, sequence (P26010 20-798): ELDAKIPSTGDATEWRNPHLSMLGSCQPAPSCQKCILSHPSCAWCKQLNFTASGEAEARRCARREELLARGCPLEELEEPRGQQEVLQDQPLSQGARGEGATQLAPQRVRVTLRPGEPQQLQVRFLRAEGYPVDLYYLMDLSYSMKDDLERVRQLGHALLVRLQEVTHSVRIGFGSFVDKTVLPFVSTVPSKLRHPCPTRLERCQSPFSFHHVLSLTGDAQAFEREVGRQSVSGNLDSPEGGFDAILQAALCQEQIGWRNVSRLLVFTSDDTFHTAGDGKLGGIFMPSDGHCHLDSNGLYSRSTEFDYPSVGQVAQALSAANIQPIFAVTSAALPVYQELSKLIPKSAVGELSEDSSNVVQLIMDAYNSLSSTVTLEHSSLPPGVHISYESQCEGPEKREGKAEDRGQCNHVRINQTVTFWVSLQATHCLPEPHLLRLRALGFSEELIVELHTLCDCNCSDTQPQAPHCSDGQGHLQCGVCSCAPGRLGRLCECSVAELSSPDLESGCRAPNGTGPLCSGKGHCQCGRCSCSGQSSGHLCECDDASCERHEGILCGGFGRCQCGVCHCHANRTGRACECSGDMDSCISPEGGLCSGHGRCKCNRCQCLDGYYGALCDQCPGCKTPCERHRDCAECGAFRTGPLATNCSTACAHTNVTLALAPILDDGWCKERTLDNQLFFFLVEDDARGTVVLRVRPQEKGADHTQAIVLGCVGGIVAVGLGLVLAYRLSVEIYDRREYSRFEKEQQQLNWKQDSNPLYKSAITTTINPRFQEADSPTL

For `CC(=O)N[C@@H]1C(=O)N(C)[C@@H](CCCNC(=N)N)C(=O)N[C@@H](CO)C(=O)N[C@@H](CC(=O)O)C(=O)N[C@@H]([C@@H](C)O)C(=O)N[C@@H](CC(C)C)C(=O)N[C@H](C(=O)N[C@@H](Cc2ccc3ccccc3c2)C(=O)N[C@H](CCC(=O)O)C(=O)N[C@H](CCCCNC(=O)COCC(=O)NCCCC[C@@H](NC(=O)[C@@H](CCC(=O)O)NC(=O)[C@H](Cc2ccc3ccccc3c2)NC(=O)[C@H]2NC(=O)[C@H](CC(C)C)NC(=O)[C@H]([C@@H](C)O)NC(=O)[C@H](CC(=O)O)NC(=O)[C@H](CO)NC(=O)[C@H](CCCNC(=N)N)N(C)C(=O)[C@@H](NC(C)=O)C(C)(C)SSC2(C)C)C(N)=O)C(N)=O)C(C)(C)SSC1(C)C` [compound 29] (I: Ac-[Pen][NMeR]SDTL[Pen][2Nal][dE][dK]-NH2 / II: Ac-[Pen][NMeR]SDTL[Pen][2Nal][dE][dK]-NH2; disulfide I:1-I:7, II:1-II:7; linker I:10-II:10 via Diglycolyl), the half-life at 22 μM in series [1] (setting [2]) is more than 3 h. Further, the half-maximal inhibitory concentration (IC50) – broadly, the midpoint of a concentration-inhibition curve – on rh integrin α4β7 was less than 10 nM; on α4β7, 10 to 25 nM.

For the molecule `CC(=O)N[C@@H]1C(=O)N(C)[C@@H](CCCNC(=N)N)C(=O)N[C@@H](CO)C(=O)N[C@@H](CC(=O)O)C(=O)N[C@@H](CC(=O)O)C(=O)N[C@@H](CC(C)C)C(=O)N[C@H](C(=O)N[C@@H](Cc2c[nH]c3ccccc23)C(=O)N[C@@H](CCC(=O)O)C(=O)N[C@H](CCCCN)C(N)=O)C(C)(C)SSC1(C)C` [compound 46] (Ac-[Pen][NMeR]SDDL[Pen]WE[dK]-NH2; disulfide 1-7), the half-life at 22 μM in series [1] (setting [2]) was more than 3 h. Further, the IC50 on rh integrin α4β7 fell in the range of 1000 to 10000 nM.

In the case of `CC(=O)N[C@@H]1C(=O)N(C)[C@@H](CCCNC(=N)N)C(=O)N[C@H](CC(=O)O)C(=O)N[C@@H](CC(=O)O)C(=O)N[C@@H]([C@@H](C)O)C(=O)N[C@@H](CC(C)C)C(=O)N[C@H](C(=O)N[C@@H](Cc2c[nH]c3ccccc23)C(=O)N[C@@H](CCC(=O)O)C(=O)N[C@H](CCCCN)C(N)=O)C(C)(C)SSC1(C)C` [compound 48] (Ac-[Pen][NMeR][dD]DTL[Pen]WE[dK]-NH2; disulfide 1-7), in series [1] (setting [2]), the half-life at 22 μM is more than 3 h. In addition, on rh integrin α4β7, the half-inhibitory concentration (IC50) fell in the range of 1000 to 10000 nM.

`CC(=O)N[C@@H]1C(=O)N(C)[C@@H](CCCNC(=N)N)C(=O)N[C@@H](CO)C(=O)N[C@@H](CC(=O)O)C(=O)N[C@@H]([C@@H](C)O)C(=O)N[C@@H](CC(C)C)C(=O)N[C@H](C(=O)N[C@@H](Cc2c[nH]c3ccccc23)C(=O)N[C@@H](CCC(=O)O)C(=O)N2CCC[C@H]2C(=O)N[C@H](CCCCN)C(N)=O)C(C)(C)SSC1(C)C` [compound 49] (Ac-[Pen][NMeR]SDTL[Pen]WEP[dK]-NH2; disulfide 1-7): in series [1] (setting [2]), the half-life at 22 μM is more than 3 h. Moreover, the IC50 on rh integrin α4β7 lay in the range of 10 to 25 nM.

In the case of `CC(=O)N[C@@H]1C(=O)N(C)[C@@H](CCCNC(=N)N)C(=O)N[C@@H](CO)C(=O)N[C@@H](CC(=O)O)C(=O)N[C@@H]([C@@H](C)O)C(=O)N[C@@H](CC(C)C)C(=O)N[C@H](C(=O)N[C@@H](Cc2ccc3ccccc3c2)C(=O)N[C@@H](CCc2ccccc2)C(=O)N[C@H](CCCCN)C(N)=O)C(C)(C)SSC1(C)C` [compound 50] (Ac-[Pen][NMeR]SDTL[Pen][2Nal][hPhe][dK]-NH2; disulfide 1-7), in series [1] (setting [2]), the half-life at 22 μM was 1.73 h. Moreover, on rh integrin α4β7, the IC50 lay within 10 to 25 nM.

For the molecule `CC(=O)N[C@@H]1C(=O)N(C)[C@@H](CCCNC(=N)N)C(=O)N[C@@H](CO)C(=O)N[C@@H](CC(=O)O)C(=O)N[C@@H]([C@@H](C)O)C(=O)N[C@@H](CC(C)C)C(=O)N[C@H](C(=O)N[C@@H](Cc2c[nH]c3ccccc23)C(=O)NC2(C(=O)N[C@H](CCCCN)C(N)=O)Cc3ccccc3C2)C(C)(C)SSC1(C)C` [compound 51] (Ac-[Pen][NMeR]SDTL[Pen]W[Aic][dK]-NH2; disulfide 1-7), in series [1] (setting [2]), the half-life at 22 μM was 3 h. Moreover, the IC50 on rh integrin α4β7 lay in the range of 25 to 50 nM.

In the case of `CC(C)C[C@@H]1NC(=O)[C@H]([C@@H](C)O)NC(=O)[C@H](CC(=O)O)NC(=O)[C@H](CO)NC(=O)[C@H](CCCNC(=N)N)N(C)C(=O)[C@@H](NC(=O)CCN)C(C)(C)SSC(C)(C)[C@@H](C(=O)N[C@@H](Cc2c[nH]c3ccccc23)C(=O)N[C@@H](CCC(=O)O)C(N)=O)NC1=O` [compound 52] (H-[βAla][Pen][NMeR]SDTL[Pen]WE-NH2; disulfide 2-8), the half-life at 22 μM in series [1] (setting [3]) is 1.95 h. For the same molecule, the IC50 at rh integrin α4β7 lay in the range of 10 to 25 nM; at α4β7 it was 100 to 500 nM.

As for `CC(C)C[C@@H]1NC(=O)[C@H]([C@@H](C)O)NC(=O)[C@H](CC(=O)O)NC(=O)[C@H](CO)NC(=O)[C@H](CCCNC(=N)N)N(C)C(=O)[C@@H](NC(=O)CCN)C(C)(C)SSC(C)(C)[C@@H](C(=O)N[C@@H](Cc2c[nH]c3ccccc23)C(=O)N[C@H](CCC(=O)O)C(N)=O)NC1=O` [compound 53] (H-[βAla][Pen][NMeR]SDTL[Pen]W[dE]-NH2; disulfide 2-8), the half-life at 22 μM in series [1] (setting [3]) is more than 3 h. For the same molecule, the IC50 on rh integrin α4β7 lay within 10 to 25 nM.

For `CC(=O)N[C@@H]1C(=O)N(C)[C@@H](CCCNC(=N)N)C(=O)N[C@@H](CO)C(=O)N[C@@H](CC(=O)O)C(=O)N[C@@H]([C@@H](C)O)C(=O)N[C@@H](CC(C)C)C(=O)N[C@H](C(=O)N[C@@H](Cc2ccc(C(C)(C)C)cc2)C(=O)O)C(C)(C)SSC1(C)C` [compound 151] (Ac-[Pen][NMeR]SDTL[Pen][Phe(4-tBu)]-OH; disulfide 1-7), the half-life at 22 μM in series [1] (setting [2]) was 3.12 h. For the same molecule, the IC50 fell in the range of 10 to 25 nM on rh integrin α4β7 and 50 to 100 nM at α4β7.

The record behind these values is US9809623B2, “α4β7 peptide monomer and dimer antagonists” (Protagonist Therapeutics, Inc., priority 2014, dated 2017).
